How the values were obtained:
Format in all cases: in vivo
[1] = system: bermudagrass (Cynodon dactylon); assay: Test B pre-/postemergence plant response; details: for Bermudagrass plant response rating: 8 g ai/ha
From the text: (§1) Seeds of plant species selected from blackgrass (Alopecurus myosuroides), downy bromegrass (Bromus tectorum), green foxtail (Setaria viridis), Italian ryegrass (Lolium multiflorum), wheat (Triticum aestivum), wild oat (Avena fatua), catchweed bedstraw (Galium aparine), bermudagrass (Cynodon dactylon), surinam grass (Brachiaria decumbens), cocklebur (Xanthium strumarium), corn (Zea mays), large crabgrass (Digitaria sanguinalis), woolly cupgrass (Eriochloa villosa), giant foxtail (Setaria faberii), goosegrass (Eleusine indica), johnsongrass (Sorghum halepense), kochia (Kochia scoparia), lambsquarters (Chenopodium album), morningglory (Ipomoea coccinea), eastern black (E.B.) nightshade (Solanum ptycanthum), yellow nutsedge (Cyperus esculentus), pigweed (Amaranthus retroflexus), common ragweed (Ambrosia elation), Russian thistle (Salsola iberica), soybean (Glycine max), common (oilseed) sunflower (Helianthus annuus), and velvetleaf (Abutilon theophrasti) were planted and treated preemergence with test chemicals formulated in a non-phytotoxic solvent mixture which included a surfactant.
(§2) At the same time, plants selected from these crop and weed species and also winter barley (Hordeum vulgare), canarygrass (Phalaris minor), chickweed (Stellaria media) and windgrass (Apera spica-venti) were treated with postemergence applications of some of the test chemicals formulated in the same manner. Plants ranged in height from 2 to 18 cm (1- to 4-leaf stage) for postemergence treatments.
(§3) Plant species in the flooded paddy test consisted of rice (Oryza sativa), umbrella sedge (Cyperus difformis), ducksalad (Heteranthera limosa) and barnyardgrass (Echinochloa crus-galli) grown to the 2-leaf stage for testing. At time of treatment, test pots were flooded to 3 cm above the soil surface, treated by application of test compounds directly to the paddy water, and then maintained at that water depth for the duration of the test. Treated plants and controls were maintained in a greenhouse for 13 to 15 days, after which time all species were compared to controls and visually evaluated. Plant response ratings, summarized in Table B, are based on a scale of 0 to 100 where 0 is no effect and 100 is complete control. A dash (-) response means no test result.

corn (Zea mays) = assay: Test B pre-/postemergence plant response; details: for Corn plant response rating: 8 g ai/ha
From the text: as §1, §2, §3

[2] = system: woolly cupgrass (Eriochloa villosa); assay: Test B pre-/postemergence plant response; details: for Cupgrass, Woolly plant response rating: 8 g ai/ha
From the text: as §1, §2, §3

[3] = system: downy bromegrass (Bromus tectorum); assay: Test B pre-/postemergence plant response; details: for Bromegrass, Downy plant response rating: 8 g ai/ha
From the text: as §1, §2, §3

[4] = system: Russian thistle (Salsola iberica); assay: Test B pre-/postemergence plant response; details: Preemergence
From the text: as §1, §2, §3

[5] = system: velvetleaf (Abutilon theophrasti); assay: Test B pre-/postemergence plant response; details: for Velvetleaf plant response rating: 8 g ai/ha
From the text: as §1, §2, §3

[6] = system: yellow nutsedge (Cyperus esculentus); assay: Test B pre-/postemergence plant response; details: for Nutsedge, Yellow plant response rating: 8 g ai/ha
From the text: as §1, §2, §3

[7] = system: Italian ryegrass (Lolium multiflorum); assay: Test B pre-/postemergence plant response; details: for Ryegrass, Italian plant response rating: 8 g ai/ha
From the text: as §1, §2, §3

[8] = system: giant foxtail (Setaria faberii); assay: Test B pre-/postemergence plant response; details: for Foxtail, Giant plant response rating: 8 g ai/ha
From the text: as §1, §2, §3

[9] = system: cocklebur (Xanthium strumarium); assay: Test B pre-/postemergence plant response; details: for Cocklebur plant response rating: 8 g ai/ha
From the text: as §1, §2, §3

rice (Oryza sativa) = assay: Test B flooded paddy test plant response
Method in brief: (§4)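 Step one: raise plants to 2 leaves. Step two: flood pots 3 cm over the soil and apply compound into the water, keeping this depth. Step three: after 13–15 greenhouse days, score visually versus controls, 0–100, where 100 means complete control.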

[10] = system: ducksalad (Heteranthera limosa); assay: Test B flooded paddy test plant response; details: Flood (flooded paddy test), scale 0 to 100, 0 no effect, 100 complete control
Method in brief: as §4

[11] = system: umbrella sedge (Cyperus difformis); assay: Test B flooded paddy test plant response; details: Flood (flooded paddy test), scale 0 to 100, 0 no effect, 100 complete control
Method in brief: as §4

[12] = system: barnyardgrass (Echinochloa crus-galli); assay: Test B flooded paddy test plant response
Method in brief: as §4

[13] = Postemergence, 16 g ai/ha, scale 0 to 100
[14] = Postemergence, 31 g ai/ha, scale 0 to 100, 0 no effect, 100 complete control
[15] = Postemergence, 62 g ai/ha, scale 0 to 100, 0 no effect, 100 complete control
[16] = Preemergence, 16 g ai/ha, scale 0 to 100 (0 no effect, 100 complete control)
[17] = Preemergence, 31 g ai/ha, 0 to 100 scale, 0 no effect, 100 complete control
[18] = Preemergence, 62 g ai/ha, scale 0 to 100
[19] = Flood (flooded paddy test), 62 g ai/ha, scale 0 to 100, 0 no effect, 100 complete control
[20] = Flood (flooded paddy test), 125 g ai/ha, scale 0 to 100, 0 no effect, 100 complete control
[21] = Flood (flooded paddy test), 250 g ai/ha, scale 0 to 100, 0 no effect, 100 complete control
[22] = Flood, 31 g ai/ha, scale 0 to 100

## Cc1cc(-c2ccc(Cl)cc2)nn1-c1c(OC(=O)CC(C)C)cnn(C)c1=O [Compound 37]
[1]; postemergence, 0-100 scale
  Bermudagrass plant response rating: 80
[1]; [13]
  Plant response rating, Bermudagrass: 85
[1]; [14]
  Plant response rating, Bermudagrass: 100
[1]; [15]
  Plant response rating, Bermudagrass: 100
[1]; Preemergence, scale 0 to 100 (0 no effect, 100 complete control)
  Bermudagrass plant response rating: 90
[1]; [16]
  Plant response rating, Bermudagrass: 90
[1]; [17]
  Plant response rating, Bermudagrass: 100
[1]; [18]
  Plant response rating, Bermudagrass: 100
Corn (Zea mays); postemergence, 0-100 scale
  Corn plant response rating: 45
Corn (Zea mays); [13]
  Plant response rating, Corn: 95
Corn (Zea mays); [14]
  Plant response rating, Corn: 100
Corn (Zea mays); [15]
  Plant response rating, Corn: 100
Corn (Zea mays); [16]
  Plant response rating, Corn: 40
Corn (Zea mays); [17]
  Plant response rating, Corn: 95
Corn (Zea mays); [18]
  Plant response rating, Corn: 98
Corn (Zea mays); Preemergence, scale 0 to 100
  Corn plant response rating: 40
[2]; postemergence, 0-100 scale
  Cupgrass, Woolly plant response rating: 90
[2]; [13]
  Plant response rating, Cupgrass, Woolly: 98
[2]; [14]
  Plant response rating, Cupgrass, Woolly: 100
[2]; [15]
  Plant response rating, Cupgrass, Woolly: 100
[2]; [16]
  Plant response rating, Cupgrass, Woolly: 50
[2]; [17]
  Plant response rating, Cupgrass, Woolly: 50
[2]; [18]
  Plant response rating, Cupgrass, Woolly: 100
[2]; Preemergence, scale 0 to 100
  Cupgrass, Woolly plant response rating: 50
[3]; postemergence, 0-100 scale
  Bromegrass, Downy plant response rating: 0
[3]; [13]
  Plant response rating, Bromegrass, Downy: 55
[3]; [14]
  Plant response rating, Bromegrass, Downy: 55
[3]; [15]
  Plant response rating, Bromegrass, Downy: 75
[3]; [16]
  Plant response rating, Bromegrass, Downy: 30
[3]; [17]
  Plant response rating, Bromegrass, Downy: 60
[3]; [18]
  Plant response rating, Bromegrass, Downy: 80
[3]; Preemergence, scale 0 to 100
  Bromegrass, Downy plant response rating: 0
[4]; 16 g ai/ha, scale 0 to 100 (0 no effect, 100 complete control)
  Plant response rating, Russian Thistle: 0
[4]; 31 g ai/ha, 0 to 100 scale, 0 no effect, 100 complete control
  Plant response rating, Russian Thistle: 0
[4]; 62 g ai/ha, scale 0 to 100
  Plant response rating, Russian Thistle: 90
[4]; 8 g ai/ha, scale 0 to 100
  Russian Thistle plant response rating: 0
[5]; postemergence, 0-100 scale
  Velvetleaf plant response rating: 0
[5]; [13]
  Plant response rating, Velvetleaf: 0
[5]; [15]
  Plant response rating, Velvetleaf: 0
[5]; [16]
  Plant response rating, Velvetleaf: 0
[5]; [17]
  Plant response rating, Velvetleaf: 0
[5]; [18]
  Plant response rating, Velvetleaf: 0
[5]; Preemergence, scale 0 to 100
  Velvetleaf plant response rating: 0
[6]; postemergence, 0-100 scale
  Nutsedge, Yellow plant response rating: 0
[6]; [13]
  Plant response rating, Nutsedge, Yellow: 0
[6]; [14]
  Plant response rating, Nutsedge, Yellow: 0
[6]; [15]
  Plant response rating, Nutsedge, Yellow: 0
[6]; [16]
  Plant response rating, Nutsedge, Yellow: 0
[6]; [17]
  Plant response rating, Nutsedge, Yellow: 0
[6]; [18]
  Plant response rating, Nutsedge, Yellow: 0
[6]; Preemergence, scale 0 to 100
  Nutsedge, Yellow plant response rating: 0
[7]; postemergence, 0-100 scale
  Ryegrass, Italian plant response rating: 60
[7]; [13]
  Plant response rating, Ryegrass, Italian: 90
[7]; [14]
  Plant response rating, Ryegrass, Italian: 98
[7]; [15]
  Plant response rating, Ryegrass, Italian: 100
[7]; [16]
  Plant response rating, Ryegrass, Italian: 90
[7]; [17]
  Plant response rating, Ryegrass, Italian: 98
[7]; [18]
  Plant response rating, Ryegrass, Italian: 100
[7]; Preemergence, scale 0 to 100
  Ryegrass, Italian plant response rating: 45
[8]; postemergence, 0-100 scale
  Foxtail, Giant plant response rating: 30
[8]; [13]
  Plant response rating, Foxtail, Giant: 70
[8]; [14]
  Plant response rating, Foxtail, Giant: 85
[8]; [15]
  Plant response rating, Foxtail, Giant: 100
[8]; [16]
  Plant response rating, Foxtail, Giant: 100
[8]; [17]
  Plant response rating, Foxtail, Giant: 100
[8]; [18]
  Plant response rating, Foxtail, Giant: 100
[8]; Preemergence, scale 0 to 100
  Foxtail, Giant plant response rating: 100
[9]; postemergence, 0-100 scale
  Cocklebur plant response rating: 0
[9]; [13]
  Plant response rating, Cocklebur: 0
[9]; [14]
  Plant response rating, Cocklebur: 0
[9]; [15]
  Plant response rating, Cocklebur: 0
[9]; [16]
  Plant response rating, Cocklebur: 0
[9]; [17]
  Plant response rating, Cocklebur: 0
[9]; [18]
  Plant response rating, Cocklebur: 0
[9]; Preemergence, scale 0 to 100
  Cocklebur plant response rating: 0
Rice (Oryza sativa); [19]
  Plant response rating, Rice: 70
Rice (Oryza sativa); [20]
  Plant response rating, Rice: 80
Rice (Oryza sativa); [21]
  Plant response rating, Rice: 90
Rice (Oryza sativa); [22]
  Plant response rating, Rice: 0
[10]; 62 g ai/ha
  Plant response rating, Ducksalad: 70
[10]; 125 g ai/ha
  Plant response rating, Ducksalad: 70
[10]; 250 g ai/ha
  Plant response rating, Ducksalad: 75
[11]; 62 g ai/ha
  Plant response rating, Sedge, Umbrella: 0
[11]; 125 g ai/ha
  Plant response rating, Sedge, Umbrella: 0
[11]; 250 g ai/ha
  Plant response rating, Sedge, Umbrella: 60
[12]; [19]
  Plant response rating, Barnyardgrass: 60
[12]; [20]
  Plant response rating, Barnyardgrass: 100
[12]; [21]
  Plant response rating, Barnyardgrass: 100
[12]; [22]
  Plant response rating, Barnyardgrass: 30
